From ChEMBL document CHEMBL1132223, “Quantitative structure-activity relationship of human neutrophil collagenase (MMP-8) inhibitors using comparative molecular field analysis and X-ray structure analysis” (J Med Chem, 1999)

Molecular target: Neutrophil collagenase (Homo sapiens, UniProt P22894)
Test: Inhibition of human neutrophil collagenase [Matrix Metalloprotease-8, MMP-8]

Neutrophil collagenase, sequence (P22894 whole entry): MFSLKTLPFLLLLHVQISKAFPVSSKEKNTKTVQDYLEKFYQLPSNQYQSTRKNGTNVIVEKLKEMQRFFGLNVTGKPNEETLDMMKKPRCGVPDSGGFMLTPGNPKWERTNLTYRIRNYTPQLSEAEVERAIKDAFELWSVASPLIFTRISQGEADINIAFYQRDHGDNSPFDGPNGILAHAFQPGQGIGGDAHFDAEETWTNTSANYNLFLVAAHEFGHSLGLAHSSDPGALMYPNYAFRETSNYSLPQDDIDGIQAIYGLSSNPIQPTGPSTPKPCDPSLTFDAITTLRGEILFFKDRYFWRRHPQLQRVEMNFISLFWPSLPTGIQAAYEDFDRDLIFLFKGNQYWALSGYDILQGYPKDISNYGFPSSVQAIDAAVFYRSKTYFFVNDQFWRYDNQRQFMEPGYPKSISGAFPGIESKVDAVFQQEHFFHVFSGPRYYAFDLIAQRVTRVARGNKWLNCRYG

IC50 | SMILES
8 nM | O=C(NO)[C@H]1Cc2ccccc2CN1S(=O)(=O)c1ccc(-c2ccon2)s1
2 nM | CCCCOc1ccc(S(=O)(=O)N2Cc3ccccc3C[C@@H]2C(=O)NO)cc1
2 nM | CN(C)c1ccc(-c2ccc(S(=O)(=O)N3Cc4ccccc4C[C@@H]3C(=O)NO)cc2)cc1
3 nM | O=C(NO)[C@H]1Cc2ccccc2CN1S(=O)(=O)c1ccc(-c2ccc(Cl)cc2)cc1
2 nM | O=C(NO)[C@H]1Cc2ccccc2CN1S(=O)(=O)c1ccc(OCc2ccc(F)cc2)cc1
40 nM | CNC(=O)c1ccc(Oc2ccc(S(=O)(=O)N3Cc4ccccc4C[C@@H]3C(=O)C(=O)O)cc2)cc1
2 nM | O=C(NO)[C@H]1Cc2ccccc2CN1S(=O)(=O)c1ccc(-c2ccccc2)cc1
30 nM | O=C(NO)[C@H]1Cc2ccccc2CN1S(=O)(=O)CCc1ccncc1
1000 nM | COc1ccc(S(=O)(=O)N2Cc3ccccc3C[C@H]2C(=O)NO)cc1
10000 nM | COc1ccc(S(=O)(=O)N2Cc3ncn(C)c3C[C@@H]2C(=O)O)cc1
8 nM | COc1ccc(S(=O)(=O)N2Cc3cc([N+](=O)[O-])ccc3C[C@@H]2C(=O)NO)cc1
3 nM | COc1ccc(S(=O)(=O)N2Cc3cc(NC(=O)OC(C)(C)C)ccc3C[C@@H]2C(=O)NO)cc1
10 nM | N#Cc1ccc(Oc2ccc(S(=O)(=O)N3Cc4ccccc4C[C@@H]3C(=O)C(=O)O)cc2)cc1
100 nM | O=C(NO)[C@H]1Cc2ccccc2CN1S(=O)(=O)c1ccc(N2CCOCC2)cc1
10 nM | CC(C)(C)OC(=O)Nc1ccc2c(c1)CN(S(=O)(=O)c1ccc(-c3ccc(F)cc3)cc1)[C@@H](C(=O)NO)C2
200 nM | O=C(Nc1cccc(S(=O)(=O)N2Cc3ccccc3C[C@@H]2C(=O)NO)c1)c1ccccc1O
4 nM | COc1ccc(S(=O)(=O)N2Cc3ccccc3C[C@@H]2C(=O)NO)cc1
20 nM | O=C(O)C(=O)[C@H]1Cc2ccccc2CN1S(=O)(=O)CCc1ccc(-c2ccccc2)cc1
7 nM | Nc1ccc2c(c1)CN(S(=O)(=O)c1ccc(-c3ccc(Cl)cc3)cc1)[C@@H](C(=O)C(=O)O)C2
20 nM | O=C(O)C(=O)[C@H]1Cc2cc([N+](=O)[O-])ccc2CN1S(=O)(=O)c1ccc(-c2ccc(Cl)cc2)cc1
500 nM | O=C(NO)[C@H]1Cc2ccccc2CN1S(=O)(=O)c1cc(Br)c(Br)s1
50 nM | O=C(NO)[C@H]1Cc2ccccc2CN1S(=O)(=O)c1ccc(C(F)(F)F)cc1
30 nM | CN(C)c1ccc(Oc2ccc(S(=O)(=O)N3Cc4ccccc4C[C@@H]3C(=O)C(=O)O)cc2)cc1
2000 nM | COc1ccc(S(=O)(=O)N2Cc3cc(N)ccc3C[C@@H]2C(=O)C(=O)O)cc1
2000 nM | COc1ccc(S(=O)(=O)N2Cc3cc(NC(=O)[C@H](C)N)ccc3C[C@H]2C(=O)C(=O)O)cc1
100 nM | CC(=O)Nc1ccc(S(=O)(=O)N2Cc3ccccc3C[C@@H]2C(=O)NO)cc1
90 nM | O=C(O)C(=O)[C@H]1Cc2ccccc2CN1S(=O)(=O)c1ccc(-n2nccn2)cc1

IC50 | SMILES
3000 nM | O=C(O)C(=O)C1Cc2ccccc2CN1S(=O)(=O)c1ccc(-c2ccc(Cl)cc2)cc1 (single isomer, unassigned)
20 nM | CSc1nccc(-c2ccc(S(=O)(=O)N3Cc4ccccc4C[C@@H]3C(=O)NO)s2)n1
3000 nM | CCCCCCCCCCCCCCCCS(=O)(=O)N1Cc2ccccc2C[C@@H]1C(=O)NO
60 nM | O=C(O)C(=O)[C@H]1Cc2ccccc2CN1S(=O)(=O)c1ccc(/C=C/c2ccccc2)cc1
3000 nM | O=C(NO)[C@H]1Cc2ccccc2CN1S(=O)(=O)Cc1ccccc1
5 nM | O=C(O)C(=O)[C@H]1Cc2ccccc2CN1S(=O)(=O)c1ccc(-c2ccc(Cl)cc2)cc1
1 nM | CN(C)c1ccc(-c2ccc(S(=O)(=O)N3Cc4ccccc4C[C@@H]3C(=O)C(=O)O)cc2)cc1
600 nM | O=C(O)C(=O)[C@H]1Cc2ccccc2CN1S(=O)(=O)c1ccc(-c2ccon2)s1
1000 nM | CSc1nccc(-c2ccc(S(=O)(=O)N3Cc4ccccc4C[C@@H]3C(=O)C(=O)O)s2)n1
80 nM | COC(=O)c1csc(S(=O)(=O)N2Cc3ccccc3C[C@@H]2C(=O)NO)c1OC
40 nM | COc1ccc(S(=O)(=O)N2Cc3cc(NC(=O)CCC(=O)O)ccc3C[C@@H]2C(=O)NO)cc1
40 nM | O=C(NO)[C@H]1Cc2ccccc2CN1S(=O)(=O)c1ccc2[nH]c(-c3ccccc3)nc2c1
3 nM | COc1ccc(S(=O)(=O)N2Cc3ncn(C)c3C[C@@H]2C(=O)NO)cc1
2000 nM | O=C(NO)[C@H]1Cc2ccccc2CN1S(=O)(=O)c1cc(S(=O)(=O)c2ccccc2)cs1
800 nM | O=C(NCc1csc(S(=O)(=O)N2Cc3ccccc3C[C@@H]2C(=O)NO)c1)c1ccccc1
200 nM | COc1ccc(OC(=O)Nc2cccc(S(=O)(=O)N3Cc4ccccc4C[C@@H]3C(=O)NO)c2)cc1
30 nM | CC(C)(C)OC(=O)Nc1ccc2c(c1)C[C@H](C(=O)C(=O)O)N(S(=O)(=O)c1ccc(-c3ccc(F)cc3)cc1)C2
70 nM | O=C(NO)[C@H]1Cc2ccccc2CN1S(=O)(=O)c1ccc2ccccc2c1
40 nM | O=C(O)C(=O)[C@H]1Cc2ccc([N+](=O)[O-])cc2CN1S(=O)(=O)c1ccc(-c2ccc(F)cc2)cc1
80 nM | O=C(O)C(=O)[C@H]1Cc2ccccc2CN1S(=O)(=O)c1ccc(-c2nc3ccccc3o2)cc1
2 nM | Nc1ccc2c(c1)CN(S(=O)(=O)c1ccc(-c3ccc(F)cc3)cc1)[C@@H](C(=O)NO)C2
500 nM | O=C(O)C(=O)[C@H]1Cc2ccccc2CN1S(=O)(=O)c1ccc2oc3ccccc3c2c1
2 nM | O=C(NO)[C@H]1Cc2ccccc2CN1S(=O)(=O)Cc1ccc(-c2ccccn2)s1
10 nM | COc1ccc(S(=O)(=O)N2Cc3cc(NC(=O)[C@H](CC(=O)OC(C)(C)C)NC(=O)OCc4ccccc4)ccc3C[C@H]2C(=O)NO)cc1
1 nM | COc1ccc(S(=O)(=O)N2Cc3cc(O)ccc3C[C@@H]2C(=O)NO)cc1
2 nM | COc1ccc(S(=O)(=O)N2Cc3cc(NC(=O)[C@H](C)NC(=O)OC(C)(C)C)ccc3C[C@H]2C(=O)NO)cc1
30 nM | CCOC(=O)Nc1ccc(S(=O)(=O)N2Cc3ccccc3C[C@@H]2C(=O)NO)cc1
